According to patent publication US20160046618A1, “Cyclopropyl Fused Thiazin-2-Amine Compounds as Beta-Secretase Inhibitors and Methods of Use” (AMGEN INC., priority 2014, published 2016):
Where two headings read alike, the source gives them in different places.

Experiments:
[1] = target: human recombinant BACE1 (Homo sapiens (Human), UniProt P56817); test: In vitro enzymatic BACE1 FRET assay; type: biochemical; conditions: read-out: IC50 IP (μM) BACE1 enzyme
Summary of the method: (§1)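 Read-out: dequenched fluorescence, excitation 488 nm, emission 590 nm, after proteolysis of a quenched peptide spanning the BACE cleavage site. Substrate at 50 nM, 1 h incubation, termination by Tris addition to neutral pH.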

[2] = target: human recombinant BACE2 (Homo sapiens (Human), UniProt Q9Y5Z0); test: In vitro enzymatic BACE2 FRET assay; type: biochemical; conditions: read-out: IC50 IP (μM) BACE2 enzyme
Chain of human recombinant BACE2 (Q9Y5Z0 63-518): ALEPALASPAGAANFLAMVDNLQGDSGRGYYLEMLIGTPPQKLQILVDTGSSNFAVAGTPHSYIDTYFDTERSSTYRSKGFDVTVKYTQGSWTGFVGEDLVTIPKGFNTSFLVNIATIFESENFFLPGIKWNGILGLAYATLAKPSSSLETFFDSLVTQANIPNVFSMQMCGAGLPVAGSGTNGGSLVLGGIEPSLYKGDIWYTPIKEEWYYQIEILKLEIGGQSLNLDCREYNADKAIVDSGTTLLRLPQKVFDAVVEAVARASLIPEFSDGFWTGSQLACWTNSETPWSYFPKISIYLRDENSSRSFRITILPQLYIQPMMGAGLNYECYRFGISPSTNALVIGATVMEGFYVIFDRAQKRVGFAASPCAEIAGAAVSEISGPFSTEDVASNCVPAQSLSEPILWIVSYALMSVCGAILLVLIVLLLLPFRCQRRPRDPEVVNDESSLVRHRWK
Summary of the method: as §1

[3] = test system: Aβ40 in conditioned medium of cells stably expressing Amyloid Precursor Protein (APP); test: In vitro BACE-1 cell-based assay (Aβ40 sandwich ELISA); conditions: read-out: IC50 IP (μM) BACE1 cell
Summary of the method: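 Read-out: time-resolved fluorescence (Streptavidin-Europium) of Aβ40 captured by pAb40 and detected with biotinylated 6E10 from supernatants of APP-stable cells. Cells were exposed to compound for 24 h, 10-point dose response, top dose 100 μM or 10 μM, 0.1% DMSO. IC50 fitted to percent of control.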

[4] = target: Recombinant Cat D (Homo sapiens (Human), UniProt P07339); test: In vitro enzymatic Cathepsin D (Cat D) FRET assay; type: biochemical; conditions: read-out: IC50 IP (μM) CatD
Chain of Recombinant Cat D (P07339 65-412): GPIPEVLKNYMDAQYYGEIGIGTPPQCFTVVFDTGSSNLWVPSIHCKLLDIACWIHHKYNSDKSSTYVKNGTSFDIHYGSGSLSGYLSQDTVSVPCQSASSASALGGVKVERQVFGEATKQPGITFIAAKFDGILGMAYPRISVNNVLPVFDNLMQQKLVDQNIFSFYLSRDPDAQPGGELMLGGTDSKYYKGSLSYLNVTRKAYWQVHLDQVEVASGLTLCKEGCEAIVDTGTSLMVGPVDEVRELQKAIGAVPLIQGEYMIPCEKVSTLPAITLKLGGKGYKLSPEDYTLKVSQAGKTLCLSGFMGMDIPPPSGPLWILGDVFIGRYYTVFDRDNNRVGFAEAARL
Summary of the method: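 Human Cat D expressed in CHO cells was incubated for one hour in 0.05 M citrate pH 3.5, 5 mM CHAPS, 10% DMSO final, with 20 nM quenched FRET peptide substrate. Reactions were stopped with Tris buffer raising pH to neutrality. Cleavage was read as fluorescence at excitation 500 nm, emission 580 nm.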

[5] = test system: Aβ 40 in rat CSF; test: In vivo inhibition of beta-secretase: Aβ40 reduction in rat CSF; conditions: after 4 h
Summary of the method: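 Male Sprague Dawley rats (200 g) dosed orally in 2% HPMC, 1% Tween80, pH 2.2, at 3, 10 or 30 mg/kg; CSF and brain taken 4 h later. Brain homogenate centrifuged at 355,000 g; Aβ40 measured by ECL sandwich ELISA (4G8 capture, Abeta40 C-terminal Fab detection), as % reduction versus vehicle controls.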

[6] = test system: Aβ 40 in rat brain; test: In vivo inhibition of beta-secretase: Aβ40 reduction in rat brain; conditions: after 4 h
Summary of the method: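 Rats were dosed by oral gavage at up to 100 mg/kg in 2% HPMC, 1% Tween80, pH 2.2, with vehicle-only controls. Supernatant Aβ40 was measured by ECL sandwich ELISA with biotinylated-4G8 capture and C-terminal Fab40 detection.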

Chain of human recombinant BACE1 (P56817 46-501): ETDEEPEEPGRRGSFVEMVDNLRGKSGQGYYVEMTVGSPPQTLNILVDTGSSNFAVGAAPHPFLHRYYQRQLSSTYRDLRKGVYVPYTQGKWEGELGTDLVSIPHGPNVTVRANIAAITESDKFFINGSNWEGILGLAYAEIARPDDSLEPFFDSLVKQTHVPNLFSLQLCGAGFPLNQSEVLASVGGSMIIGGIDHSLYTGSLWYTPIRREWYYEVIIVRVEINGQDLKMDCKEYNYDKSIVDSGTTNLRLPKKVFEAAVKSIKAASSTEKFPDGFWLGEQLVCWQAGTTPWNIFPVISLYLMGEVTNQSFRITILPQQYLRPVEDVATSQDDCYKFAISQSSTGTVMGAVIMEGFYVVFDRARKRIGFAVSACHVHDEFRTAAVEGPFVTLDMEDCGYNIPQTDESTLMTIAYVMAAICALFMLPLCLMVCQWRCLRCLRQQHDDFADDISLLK

Compound | IC50 ([1]; BACE1 FRET enzyme assay) [µM] | IC50 ([2]; BACE2 FRET enzyme assay) [µM] | IC50 ([3]; BACE1 cell-based assay) [µM] | IC50 ([4]; Cathepsin D FRET enzyme assay) [µM] | IC50 [1] [µM] | IC50 [2] [µM] | IC50 [3] [µM] | IC50 [4] [µM] | % Aβ 40 reduction in rat CSF at 10 mpk [5] [%] | % Aβ 40 reduction in rat brain at 10 mpk [6] [%] | % Aβ 40 reduction in rat CSF (3 mpk) ([5]; 3 mpk) | % Aβ 40 reduction in rat brain (3 mpk) ([6]; 3 mpk)
N#Cc1cnc2c(Nc3ccc(F)c([C@@]4(CF)N=C(N)S[C@H]5CC54)c3)nccc2c1 (stereo in doubt) [Example 38, 8-((3-((1S,5S,6S)-3-amino-5-(fluoromethyl)-2-thia-4-azabicyclo[4.1.0]hept-3-en-5-yl)-4-fluorophenyl)amino)-1,7-naphthyridine-3-carbonitrile] | 0.0157 | 0.00728 | 0.0144 | > 133 | – | – | – | – | 66 | 44 | – | –
C[C@]1(c2cc(Nc3nccc4cc(C#N)cnc34)cc(F)c2F)N=C(N)S[C@H]2C[C@H]21 [Example 21, 8-((3-((1S,5S,6S)-3-amino-5-methyl-2-thia-4-azabicyclo[4.1.0]hept-3-en-5-yl)-4,5-difluorophenyl)amino)-1,7-naphthyridine-3-carbonitrile] | 0.0145 | 0.00534 | 0.0164 | > 133 | – | – | – | – | 61 | 40 | – | –
C#CCOc1cnc2c(Nc3cc(F)c(F)c([C@@]4(C)N=C(N)S[C@@]5(CO)C[C@H]54)c3)nccc2n1 [Example 82, ((1S,5S,6S)-3-amino-5-(2,3-difluoro-5-((2-(2-propyn-1-yloxy)pyrido[3,4-b]pyrazin-5-yl)amino)phenyl)-5-methyl-2-thia-4-azabicyclo[4.1.0]hept-3-en-1-yl)methanol] | 0.00043 | 0.0099 | 0.00354 | > 133 | – | – | – | – | 48 | 23 | – | –
C#CCOc1cnc(C(=O)Nc2cc(F)c(F)c([C@@]3(CF)N=C(N)S[C@H]4C[C@H]43)c2)cn1 [Example 20, N-(3-((1S,5S,6S)-3-amino-5-(fluoromethyl)-2-thia-4-azabicyclo[4.1.0]hept-3-en-5-yl)-4,5-difluorophenyl)-5-(2-propyn-1-yloxy)-2-pyrazinecarboxamide] | 0.0006 | 0.0394 | 0.00064 | 47.1 | – | – | – | – | 80 | 76 | – | –
C#CCOc1cnc(C(=O)Nc2cc(F)c(F)c([C@@]3(CF)N=C(N)S[C@H]4C[C@H]43)c2)c(C)n1 [Example 84, N-(3-((1S,5S,6S)-3-amino-5-(fluoromethyl)-2-thia-4-azabicyclo[4.1.0]hept-3-en-5-yl)-4,5-difluorophenyl)-3-methyl-5-(2-propyn-1-yloxy)-2-pyrazinecarboxamide] | 0.00125 | 0.0228 | 0.0216 | 974 | – | – | – | – | 40 | 8 | – | –
Cc1cc(OCC(F)(F)F)cnc1C(=O)Nc1ccc(F)c([C@@]2(C)N=C(N)S[C@@]3(C(F)F)C[C@@H]23)c1 [Example 680, N-(3-((1S,5S,6S)-3-amino-1-(difluoromethyl)-5-methyl-2-thia-4-azabicyclo[4.1.0]hept-3-en-5-yl)-4-fluorophenyl)-3-methyl-5-(2,2,2-trifluoroethoxy)-2-pyridinecarboxamide] | – | – | – | – | 0.0139 | 0.846 | 0.0153 | 1110 | 30 | 8 | – | –
COC[C@]12C[C@H]1[C@@](C)(c1cc(NC(=O)c3ccc(OCC(F)(F)F)cn3)ccc1F)N=C(N)S2 [Example 698, N-(3-((1S,5S,6S)-3-amino-1-(methoxymethyl)-5-methyl-2-thia-4-azabicyclo[4.1.0]hept-3-en-5-yl)-4-fluorophenyl)-5-(2,2,2-trifluoroethoxy)-2-pyridinecarboxamide] | – | – | – | – | 0.0086 | 0.316 | 0.0116 | > 400 | 15 | −7 | – | –
COC[C@]12C[C@H]1[C@@](C)(c1cc(Nc3ncnc4cc(Cl)cnc34)cc(F)c1F)N=C(N)S2 [Example 35, N-(3-((1S,5S,6S)-3-amino-1-(methoxymethyl)-5-methyl-2-thia-4-azabicyclo[4.1.0]hept-3-en-5-yl)-4,5-difluorophenyl)-7-chloropyrido[3,2-d]pyrimidin-4-amine] | 0.00386 | 0.00363 | 0.00288 | 213 | – | – | – | – | 63 | 50 | – | –
C#CCOc1cnc(C(=O)Nc2cc(F)c(F)c([C@@]3(C)N=C(N)S[C@H]4C[C@H]43)c2)cn1 [Example 23, N-(3-((1S,5S,6S)-3-amino-5-methyl-2-thia-4-azabicyclo[4.1.0]hept-3-en-5-yl)-4,5-difluorophenyl)-5-(2-propyn-1-yloxy)-2-pyrazinecarboxamide] | 0.00047 | 0.0374 | 0.00062 | 81.9 | – | – | – | – | – | – | 70 (3 mpk) % | 61 (3 mpk) %
Cc1cc(OCc2ncco2)cnc1C(=O)Nc1cc(F)c(F)c([C@@]2(C)N=C(N)S[C@@]3(CF)C[C@H]32)c1 [Example 645, N-(3-((1S,5S,6S)-3-amino-1-(fluoromethyl)-5-methyl-2-thia-4-azabicyclo[4.1.0]hept-3-en-5-yl)-4,5-difluorophenyl)-3-methyl-5-(1,3-oxazol-2-ylmethoxy)-2-pyridinecarboxamide] | – | – | – | – | 0.00337 | 0.143 | 0.0246 | 477 | 53 | 34 | – | –

More lines, main results first:

IC50 ([1]; BACE1 FRET enzyme assay) [µM] | IC50 ([2]; BACE2 FRET enzyme assay) [µM] | IC50 ([3]; BACE1 cell-based assay) [µM] | IC50 ([4]; Cathepsin D FRET enzyme assay) [µM] | IC50 [1] [µM] | IC50 [2] [µM] | IC50 [3] [µM] | IC50 [4] [µM] | Compound | % Aβ 40 reduction in rat CSF at 10 mpk [5] [%] | % Aβ 40 reduction in rat brain at 10 mpk [6] [%] | % Aβ 40 reduction in rat CSF (3 mpk) ([5]; 3 mpk) | % Aβ 40 reduction in rat brain (3 mpk) ([6]; 3 mpk)
– | – | – | – | 0.00105 | 0.0661 | 0.00709 | 381 | C#CCOc1cnc2c(Nc3cc(F)c(F)c([C@@]4(C)N=C(N)S[C@@]5(C(F)F)C[C@@H]45)c3)ncnc2c1 [Example 945, N-(3-((1S,5S,6S)-3-amino-1-(difluoromethyl)-5-methyl-2-thia-4-azabicyclo[4.1.0]hept-3-en-5-yl)-4,5-difluorophenyl)-7-(2-propyn-1-yloxy)pyrido[3,2-d]pyrimidin-4-amine] | 68 | 55 | – | –
– | – | – | – | 0.000902 | 0.0551 | 0.0386 | 633 | C#C[C@H](C)Oc1cnc2c(Nc3cc(F)c(F)c([C@@]4(C)N=C(N)S[C@@]5(C#N)C[C@H]54)c3)nccc2n1 [Example 931, (1S,5S,6S)-3-amino-5-(2,3-difluoro-5-((2-(((1S)-1-methyl-2-propyn-1-yl)oxy)pyrido[3,4-b]pyrazin-5-yl)amino)phenyl)-5-methyl-2-thia-4-azabicyclo[4.1.0]hept-3-ene-1-carbonitrile] | 8 | 3 | – | –
– | – | – | – | 0.000992 | 0.0334 | 0.00497 | 310 | C[C@]1(c2cc(Nc3nccc4nc(OCc5ncco5)cnc34)cc(F)c2F)N=C(N)S[C@@]2(CF)C[C@H]21 [Example 802, N-(3-((1S,5S,6S)-3-amino-1-(fluoromethyl)-5-methyl-2-thia-4-azabicyclo[4.1.0]hept-3-en-5-yl)-4,5-difluorophenyl)-2-(1,3-oxazol-2-ylmethoxy)pyrido[3,4-b]pyrazin-5-amine] | 59 | 50 | – | –
– | – | – | – | 0.000969 | 0.107 | 0.0215 | 438 | C[C@]1(c2cc(NC(=O)c3cnc(OCC(F)(F)C(F)F)cn3)ccc2F)N=C(N)S[C@]2(CO)[C@H]1C2(F)F [Example 708, N-(3-((1S,5S,6R)-3-amino-7,7-difluoro-1-(hydroxymethyl)-5-methyl-2-thia-4-azabicyclo[4.1.0]hept-3-en-5-yl)-4-fluorophenyl)-5-(2,2,3,3-tetrafluoropropoxy)-2-pyrazinecarboxamide] | 13 | −4 | – | –
– | – | – | – | 0.000527 | 0.268 | 0.0101 | 260 | CC(C)NC(=O)[C@]12C[C@H]1[C@@](C)(c1cc(NC(=O)c3cnc(OCC(F)(F)F)cn3)ccc1F)N=C(N)S2 [Example 976, (1S,5S,6S)-3-amino-5-(2-fluoro-5-(5-(2,2,2-trifluoroethoxy)pyrazine-2-carboxamido)phenyl)-N-isopropyl-5-methyl-2-thia-4-azabicyclo[4.1.0]hept-3-ene-1-carboxamide] | 36 | 16 | – | –
